Consider 26 compounds from patent publication US20050182252A1, “Novel 2'-C-methyl nucleoside derivatives” (priority 2004, published 2005).

The structures appear in SMILES notation. Where a name gives a salt, the structure may show the parent alone.

For orientation: melting point means the temperature of the solid-liquid transition. `C[C@@]1(O)[C@H](O)[C@@H](COP2(=O)OCC[C@@H](c3ccccn3)O2)O[C@H]1n1cnc2c(N)ncnc21` (stereo partly drawn) (as salt: trifluoroacetic acid salt) [Compound 21.7, cis-5′-O-[4-(pyridin-2-yl)-2-oxo-1,3,2-dioxaphosphorinan-2-yl]-2′-C-beta-methyl-adenosine trifluoroacetic acid salt] had a melting point of 118 to 120 °C.

`C[C@@]1(O)[C@H](O)[C@@H](COP2(=O)OCC[C@@H](c3ccc(S(C)(=O)=O)cc3)O2)O[C@H]1n1cnc2c(N)ncnc21` (stereo partly drawn) (as salt: trifluoroacetic acid salt) [Compound 21.8, cis-5′-O-[4-(4-methylsulfonylphenyl)-2-oxo-1,3,2-dioxaphosphorinan-2-yl]-2′-C-beta-methyl-adenosine trifluoroacetic acid salt] gave a melting point of 185 to 187 °C.

The compound `C[C@@]1(O)[C@H](O)[C@@H](COP2(=O)OCC[C@H](c3cc(F)ccc3F)O2)O[C@H]1n1ccc2c(N)ncnc21` (stereo partly drawn) [Compound 16.2, 4-amino-7-(cis-5′-O-[4-(2,5-difluorophenyl)-2-oxo-1,3,2-dioxaphosphorinan-2-yl]-2-C-methyl-beta-D-ribofuranosyl)-7H-pyrrolo[2,3-d]pyrimidine] had a melting point of 145 to 148 °C.

The compound `C[C@@]1(O)[C@H](O)[C@@H](COP2(=O)OCC[C@H](c3ccc(F)c(Cl)c3)O2)O[C@H]1n1ccc2c(N)ncnc21` (stereo partly drawn) [Compound 16.3, 4-amino-7-(cis-5′-O-[4-(3-chloro-4-fluorophenyl)-2-oxo-1,3,2-dioxaphosphorinan-2-yl]-2′-C-methyl-beta-D-ribofuranosyl)-7H-pyrrolo[2,3-d]pyrimidine] came in with a melting point of 128 to 130 °C.

The compound `CC1(C)C[C@H](c2ccccc2)OP(=O)(OC[C@H]2O[C@@H](n3ccc4c(N)ncnc43)[C@](C)(O)[C@@H]2O)O1` (stereo partly drawn) [Compound 16.4, 4-amino-7-(cis-5′-O-[6,6-dimethyl-4-phenyl-2-oxo-1,3,2-dioxaphosphorinan-2-yl]-2′-C-methyl-beta-D-ribofuranosyl)-7H-pyrrolo[2,3-d]pyrimidine] displayed a melting point of 140 to 142 °C.

`C[C@@]1(O)[C@H](O)[C@@H](CO[P@@]2(=O)OCC[C@@H](c3cccc(Cl)c3)O2)O[C@H]1n1ccc2c(N)ncnc21` [Compound 16.5, 4-amino-7-(cis-5′-[4-(S)-(3-chlorophenyl)-2-oxo-1,3,2-dioxaphosphorinan-2-yl]-2′-C-methyl-beta-D-ribofuranosyl)-7H-pyrrolo[2,3-d]pyrimidine] returned a melting point of 135 to 138 °C.

`C[C@@]1(O)[C@H](O)[C@@H](CO[P@@]2(=O)OCC[C@@H](c3ccncc3)O2)O[C@H]1n1ccc2c(N)ncnc21` [Compound 16.7]: the melting point was in the range of 183 to 185 °C.

In turn, `C[C@@]1(O)[C@H](O)[C@@H](COP2(=O)OCC[C@@H](c3ccccc3Br)O2)O[C@H]1n1ccc2c(N)ncnc21` (stereo partly drawn) [Compound 16.10, 4-amino-7-(cis-5′-O-[4-(2-bromophenyl)-2-oxo-1,3,2-dioxaphosphorinan-2-yl]-2′-C-methyl-beta-D-ribofuranosyl)-7H-pyrrolo[2,3-d]pyrimidine] displayed a melting point of 132 to 135 °C.

For the compound `C[C@@]1(O)[C@H](O)[C@@H](COP2(=O)OCC[C@@H](c3cncc(Br)c3)O2)O[C@H]1n1ccc2c(N)ncnc21` (stereo partly drawn) [Compound 16.11, 4-amino-7-(cis-5′-O-[4-(5-bromopyridin-3-yl)-2-oxo-1,3,2-dioxaphosphorinan-2-yl]-2′-C-methyl-beta-D-ribofuranosyl)-7H-pyrrolo[2,3-d]pyrimidine], the melting point was in the range of 132 to 135 °C.

On to `C[C@@]1(O)[C@H](O)[C@@H](CO[P@@]2(=O)OCC[C@@H](c3ccccc3)O2)O[C@H]1n1ccc2c(N)ncnc21` [Compound 16.12, 4-amino-7-(cis-5′-O-[4-(S)-phenyl-2-oxo-1,3,2-dioxaphosphorinan-2-y]-2′-C-methyl-beta-D-ribofuranosyl)-7H-pyrrolo[2,3-d]pyrimidine], for which the melting point is 115 to 118 °C.

Compound `C[C@@]1(O)[C@H](O)[C@@H](COP2(=O)OCC[C@@H](c3ccccc3Cl)O2)O[C@H]1n1ccc2c(N)ncnc21` (stereo partly drawn) [Compound 16.14, 4-amino-7-(cis-5′-O-[4-(2-chlorophenyl)-2-oxo-1,3,2-dioxaphosphorinan-2-yl]-2′-C-methyl-beta-D-ribofuranosyl)-7H-pyrrolo[2,3-d]pyrimidine] had a melting point of 187 to 190 °C.

As for `C[C@@]1(O)[C@H](O)[C@@H](COP2(=O)OC[C@@H](c3ccccc3)[C@@H](c3ccccc3)O2)O[C@H]1n1ccc2c(N)ncnc21` (stereo partly drawn) [Compound 16.22, 4-amino-7-(trans-5′-O-[4,5-cis-diphenyl-2-oxo-1,3,2-dioxaphosphorinan-2-yl]-2′-C-methyl-beta-D-ribofuranosyl)-7H-pyrrolo[2,3-d]pyrimidine], the melting point fell in the range of 160 to 163 °C.

Consider `C[C@@]1(O)[C@H](O)[C@@H](COP2(=O)OCC[C@@H](c3cc(Cl)ccc3Br)O2)O[C@H]1n1ccc2c(N)ncnc21` (stereo partly drawn) [Compound 16.25, 4-amino-7-(cis-5′-O-[4-(2-bromo-5-chlorophenyl)-2-oxo-1,3,2-dioxaphosphorinan-2-yl]-2′-C-methyl-beta-D-ribofuranosyl)-7H-pyrrolo[2,3-d]pyrimidine], for which the melting point is 193 to 196 °C.

As to `C[C@@]1(O)[C@H](O)[C@@H](COP2(=O)OCC[C@H](c3cc(Cl)cc(Cl)c3)O2)O[C@H]1n1ccc2c(N)ncnc21` (stereo partly drawn) [Compound 16.26, 4-amino-7-(cis-5′-O-[4-(3,5-dichlorophenyl)-2-oxo-1,3,2-dioxaphosphorinan-2-yl]-2′-C-methyl-beta-D-ribofuranosyl)-7H-pyrrolo[2,3-d]pyrimidine], the melting point lay in the range of 182 to 185 °C.

With `C[C@@]1(O)[C@H](O)[C@@H](COP2(=O)OCC[C@H](c3cc(F)cc(F)c3)O2)O[C@H]1n1ccc2c(N)ncnc21` (stereo partly drawn) [Compound 16.27, 4-amino-7-(cis-5′-O-[-4-(3,5-difluorophenyl)-2-oxo-1,3,2-dioxaphosphorinan-2-yl]-2′-C-methyl-beta-D-ribofuranosyl)-7H-pyrrolo[2,3-d]pyrimidine], the melting point was 135 to 140 °C.

The compound `C[C@@]1(O)[C@H](O)[C@@H](CO[P@]2(=O)OCC[C@H](c3cccc(Cl)c3)O2)O[C@H]1n1ccc2c(N)ncnc21` [Compound 16.28, 4-amino-7-(cis-5′-O-[4-(R)-(3-chlorophenyl)-2-oxo-1,3,2-dioxaphosphorinan-2-yl]-2′-C-methyl-beta-D-ribofuranosyl)-7H-pyrrolo[2,3-d]pyrimidine] had a melting point of 126 to 128 °C.

Compound `C[C@@]1(O)[C@H](O)[C@@H](COP2(=O)OCC[C@H](c3ccccc3C(F)(F)F)O2)O[C@H]1n1ccc2c(N)ncnc21` (stereo partly drawn) [Compound 16.29, 4-amino-7-(cis-5′-O-[4-(2-trifluoromethylphenyl)-2-oxo-4,3,2-dioxaphosphorinan-2-yl]-2′-C-methyl-beta-D-ribofuranosyl)-7H-pyrrolo[2,3-d]pyrimidine] gave a melting point of 115 to 120 °C.

The compound `C[C@@]1(O)[C@H](O)[C@@H](CO[P@]2(=O)OCC[C@H](c3ccncc3)O2)O[C@H]1n1ccc2c(N)ncnc21` [Compound 16.30, 4-amino-7-(cis-5′-O-[4-(R)-(pyridin-4-yl)-2-oxo-1,3,2-dioxaphosphorinan-2-yl]-2′-C-methyl-beta-D-ribofuranosyl)-7H-pyrrolo[2,3-d]pyrimidine] had a melting point of 132 to 136 °C.

For the compound `C[C@@]1(O)[C@H](O)[C@@H](COP2(=O)OCC[C@H](c3cccnc3)O2)O[C@H]1n1ccc2c(N)ncnc21` (some centres unmarked) [Compound 16.32], the melting point was in the range of 134 to 138 °C.

As for `C[C@@]1(O)[C@H](O)[C@@H](CO[P@]2(=O)OCC[C@H](c3ccccc3)O2)O[C@H]1n1ccc2c(N)ncnc21` [Compound 16.34], the melting point lay within 177 to 180 °C.

Consider `C[C@@]1(O)[C@H](O)[C@@H](COP2(=O)OCC[C@H](c3ccccc3F)O2)O[C@H]1n1ccc2c(N)ncnc21` (stereo partly drawn) [Compound 16.39, 4-amino-7-(cis-5′-O-[4-(2-fluorophenyl)-2-oxo-1,3,2-dioxaphosphorinan-2-yl]-2′-C-methyl-beta-D-ribofuranosyl)-7H-pyrrolo[2,3-d]pyrimidine], for which the melting point lay in the range of 101 to 103 °C.

For the compound `C[C@@]1(O)[C@H](O)[C@@H](COP2(=O)OC3CCCCC3[C@@H](c3ccccc3)O2)O[C@H]1n1ccc2c(N)ncnc21` (stereo partly drawn) [Compound 16.42, 4-amino-7-(cis-5′-O-[4-phenyl-5,6-tetramethylene-2-oxo-1,3,2-dioxaphosphorinan-2-yl]-2′-C-methyl-beta-D-ribofuranosyl)-7H-pyrrolo[2,3-d]pyrimidine], the melting point fell in the range of 110 to 113 °C.

In turn, `C[C@@]1(O)[C@H](O)[C@@H](COP2(=O)OCC[C@H](c3cccc(C#N)c3)O2)O[C@H]1n1ccc2c(N)ncnc21` (stereo partly drawn) [Compound 16.43, 4-amino-7-(cis-5′-O-[4-(3-cyanophenyl)-2-oxo-1,3,2-dioxaphosphorinan-2-yl]-2′-C-methyl-beta-D-ribofuranosyl)-7H-pyrrolo[2,3-d]pyrimidine] showed a melting point of 157 to 160 °C.

Consider `C[C@@]1(O)[C@H](O)[C@@H](COP2(=O)OCC[C@@H](c3cccc(Cl)c3)O2)O[C@H]1n1ccc2c(=O)[nH]c(N)nc21` (stereo partly drawn) [Compound 17.2, 2-amino-7-(cis-5-O-[4-(S)-(3-chlorophenyl)-2-oxo-1,3,2-dioxaphosphorinan-2-yl]-2′-C methyl-beta-D-ribofuranosyl)-7H-pyrrolo[2,3-d]pyrimidin-4(3H)-one], for which the melting point is 175 °C.

As for `C[C@@]1(O)[C@H](O)[C@@H](COP2(=O)OCC[C@@H](c3cc(F)ccc3F)O2)O[C@H]1n1ccc2c(=O)[nH]c(N)nc21` (stereo partly drawn) [Compound 17.6, 2-amino-7-(cis-5′-O-[4-(2,5-difluorophenyl)-2-oxo-1,3,2-dioxaphosphorinan-2-yl]-2′-C methyl-beta-D-ribofuranosyl)-7H-pyrrolo[2,3-d]pyrimidin-4(3H)-one], the melting point lay within 170 to 173 °C.

Regarding `C[C@@]1(O)[C@H](O)[C@@H](COP2(=O)OCC[C@H](c3cc(Cl)cc(Cl)c3)O2)O[C@H]1n1ccc2c(=O)[nH]c(N)nc21` (stereo partly drawn) [Compound 17.12, 2-amino-7-(cis-5′-O-[4-(3,5-dichlorophenyl)-2-oxo-1,3,2-dioxaphosphorinan-2-yl]-2′C methyl-beta-D-ribofuranosyl)-7H-pyrrolo[2,3-d]pyrimidin-4(3H)-one], the melting point fell in the range of 177 to 180 °C.
